# In patent publication US9018212B2, “Pyridazine carboxamides as CCR2 receptor antagonists” (Boehringer Ingelheim International GmbH, priority 2010, dated 2015):
# Molecular target: T1, CCR2 (Homo sapiens, UniProt P41597)
# T1 construct: Membranes were prepared from THP-1 cells; endogenous in cells; host or cells: THP-1 (human acute monocytic leukaemia cells), membrane preparation
# T1 sequence (P41597 1-360 isoform P41597-2): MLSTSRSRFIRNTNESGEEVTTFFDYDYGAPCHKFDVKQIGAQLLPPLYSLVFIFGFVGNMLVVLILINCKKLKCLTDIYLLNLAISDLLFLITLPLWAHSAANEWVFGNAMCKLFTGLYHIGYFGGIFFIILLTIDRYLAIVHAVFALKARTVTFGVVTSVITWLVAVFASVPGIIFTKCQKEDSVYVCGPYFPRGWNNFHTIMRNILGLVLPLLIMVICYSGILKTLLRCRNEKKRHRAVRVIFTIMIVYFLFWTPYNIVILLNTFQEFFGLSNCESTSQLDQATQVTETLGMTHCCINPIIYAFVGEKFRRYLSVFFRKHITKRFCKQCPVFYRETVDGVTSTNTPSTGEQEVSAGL
# Experiment: CCR2 receptor membrane binding assay ([125I]MCP-1, THP-1 membranes, SPA beads)
# Details: THP-1 cell membranes; [125I]MCP-1 displacement; bound radioactivity after 8 h; read-out: hKi
# Protocol: The above exemplary substances have been tested for binding to CCR2 using a binding assay as outlined herein below:
# THP-1 cells (human acute monocytic leukaemia cells) were cultured under standardized conditions at 37° C. and 5% CO2 in a humidified incubator. THP-1 cells were cultivated in RPMI 1640 medium (Gibco 21875) containing 1% MEM-NEAA (Gibso 11140) 2 mM L-glutamine, 1.5 g/L sodium bicarbonate, 4.5 g/L glucose, 10 mM HEPES and 1.0 mM sodium pyruvate, 90%; 10% fetal calf serum (FCS Gibco 10500-064).
# Membranes were prepared from THP-1 cells. THP-1 cells were centrifuged at 300×g at 4° C. for 10 min. The cell pellet was resuspended in Phosphate Buffer Saline (PBS, including 10 μM Pefabloc and a protease inhibitor mix ‘complete’, Boehringer Mannheim (1 tablet/50 ml)), to a concentration of […]. The membrane preparation was performed by disrupting the cells by nitrogen […] (at 50 bar, for 1 h) in a “Nitrogen Bombe” (Parr Instrument). Cell debris was removed by centrifugation (800×g at 4° C., 1 min). The supernatant was centrifuged at 80000×g, 4° C. for 30 min to sediment the cell membranes. Usually 50 mg of protein (Bradford assay) were yielded from 1×10E9 cells. The membranes were resuspended in 25 mM HEPES, 25 mM MgCl2, 1 mM CaCl2, 10% Glycerine for storage in aliquots at −80° C. in 25 mM HEPES, 25 mM MgCl2, 1 mM CaCl2, 10% Glycerine and stored at −80° C.
# Perkin Elmer NEX 332 Jod 125 MCP-1, Stock: 2200 Ci/mmol solved in 2000 μl assay buffer, stored at −20° C. THP-1 membrane were adjusted with 25 mM HEPES, pH 7.2; 5 mM MgCl2; 0.5 mM CaCl2; 0.2% BSA assay buffer to a concentration of 2.5 μg/15 μl. Amersham Biosciences PVT-WGA Beads (RPNQ0001) were adjusted with assay buffer to a concentration of 0.24 mg/30 μl. For preparation of the membrane-bead-suspension membranes and beads were incubated for 30 min at RT under rotation (60 rpm) with a ratio of 1:2. Test compounds dissolved in 100% DMSO to a concentration of 10 mM and are further diluted with 100% DMSO to 1 mM. All additional compound dilutions were obtained with assay buffer, final 1% DMSO. Compounds, membrane-bead-suspension and [125I]MCP-1 (ca. 25000 cpm/10 μl) were incubated. Bound radioactivity was determined by scintillation counter after 8 h. Determination of affinity of test compounds (dissociation constant hKi) is calculated by iterative fitting of experimental data using the “easy sys” program, which is based on law of mass action (Schittkowski K. (1994), Numerische Mathematik, Vol. 68, 129-142).
row,Ki [nM],Structure (SMILES)
1,5,Cc1c(NC[C@H]2CCC[C@@H](c3ccc(OC(F)(F)F)cc3)O2)cnnc1C(=O)N1CCC(NC2CCOCC2F)CC1 (some centres unmarked) [Example 14]
2,60,COc1nnc(C(=O)N2CCC(N3CCC(N(C)S(C)(=O)=O)CC3)CC2)c(C)c1NCc1ccc(C(C)(C)C)cc1 [Example 1]
3,7,Cc1c(NC[C@H]2CCC[C@@H](c3ccccc3)C2)cnnc1C(=O)N1CCC(NC2CCOCC2F)CC1 (some centres unmarked) [Example 18]
4,40,COc1nnc(C(=O)N2CCC(NC3CCOCC3OC)CC2)c(C)c1NCc1ccc(C(C)(C)C)cc1 (centres unmarked) [Example 2]
5,6,CO[C@H]1COCC[C@H]1NC1CCN(C(=O)c2nncc(NC[C@H]3CCC[C@@H](c4ccc(C(F)(F)F)cc4)O3)c2C)CC1 [Example 15]
6,35,Cc1ccc([C@@H]2CCC[C@H](CNc3cnnc(C(=O)N4CCC(NC5CCOCC5F)CC4)c3C)O2)cc1 (some centres unmarked) [Example 13]
7,1,COc1nnc(C(=O)N2CCC(N[C@H]3CCOC[C@H]3OC)CC2)c(C)c1NC[C@H]1CCC[C@@H](c2ccccc2)C1 [Example 3]
8,3,CO[C@@H]1COCC[C@@H]1NC1CCN(C(=O)c2nncc(NC[C@H]3CCC[C@@H](c4ccc(C(F)(F)F)cc4)O3)c2C)CC1 [Example 16]
9,4,CO[C@@H]1COCC[C@@H]1NC1CCN(C(=O)c2nncc(Nc3ccc(Cl)c(Cl)c3)c2C)CC1 [Example 22]
10,4,COc1nnc(C(=O)N2CCC(N[C@@H]3CCOC[C@@H]3OC)CC2)c(C)c1NC[C@H]1CCC[C@@H](c2ccc(C)cc2)O1 [Example 6]
11,3,COc1nnc(C(=O)N2CCC(N[C@H]3CCOC[C@H]3OC)CC2)c(C)c1NC[C@H]1CCC[C@@H](c2ccc(OC(F)(F)F)cc2)O1 [Example 5]
12,73,CO[C@H]1COCC[C@H]1NC1CCN(C(=O)c2nncc(N3CCc4ccc(C(F)(F)F)cc4C3)c2C)CC1 [Example 17]
13,3,CO[C@@H]1COCC[C@@H]1NC1CCN(C(=O)c2nncc(NC[C@H]3CCC[C@@H](c4ccccc4)C3)c2C)CC1 [Example 10]
14,2,COc1nnc(C(=O)N2CCC(N[C@@H]3CCOC[C@@H]3OC)CC2)c(C)c1NC[C@H]1CCC[C@@H](c2ccc(C(F)(F)F)cc2)O1 [Example 8]
15,0.7,CO[C@@H]1COCC[C@@H]1NC1CCN(C(=O)c2nncc(NC[C@H]3CCC[C@@H](c4ccc(OC(F)(F)F)cc4)O3)c2C)CC1 [Example 12]
16,41,Cc1c(Nc2ccc(Cl)c(Cl)c2)cnnc1C(=O)N1CCC(NC2CCOCC2F)CC1 (centres unmarked) [Example 21]
17,27,COC1COCCC1NC1CCN(C(=O)c2nncc(NCc3ccc(C(C)(C)C)cc3)c2C)CC1 (centres unmarked) [Example 9]
18,16,CO[C@@H]1COCC[C@@H]1NC1CCN(C(=O)c2nncc(N3CCc4ccc(C(F)(F)F)cc4C3)c2C)CC1 [Example 11]
19,54,Cc1c(N2CCc3ccc(C(F)(F)F)cc3C2)cnnc1C(=O)N1CCC(NC2CCOCC2F)CC1 (centres unmarked) [Example 20]
20,128,COC1COCCC1NC1CCN(C(=O)c2nnc(C)c(NCc3ccc(C(C)(C)C)cc3)c2C)CC1 (centres unmarked) [Example 23]
21,10,COc1nnc(C(=O)N2CCC(N[C@H]3CCOC[C@H]3OC)CC2)c(C)c1N1CCc2ccc(C(F)(F)F)cc2C1 [Example 4]
22,9,Cc1c(NC[C@H]2CCC[C@@H](c3ccc(C(F)(F)F)cc3)O2)cnnc1C(=O)N1CCC(NC2CCOCC2F)CC1 (some centres unmarked) [Example 19]
23,1,COc1nnc(C(=O)N2CCC(N[C@H]3CCOC[C@H]3OC)CC2)c(C)c1NC[C@H]1CCC[C@@H](c2ccc(C(F)(F)F)cc2)O1 [Example 7]
